The values that follow are results of earlier work, collected in US11833149B2, “Pulse dosing regimen and methods of treatment” (OSI Pharmaceuticals, LLC, priority 2016, dated 2023).

The conditions of this series: pH of approximately 2; over the pH range of 1.4 to 9.6; cited from earlier work.

In the case of `C#Cc1cccc(Nc2ncnc3cc(OCCOC)c(OCCOC)cc23)c1.Cl` [Erlotinib hydrochloride], the maximal aqueous solubility entry is listed as “approximately 0.4 mg/mL”.
